pIC50: −log10 of the molar value.
Assays:
Estrogen receptor [1] = biological target: T1, Estrogen receptor (Homo sapiens, UniProt P03372); assay: Induction of ER-alpha degradation in human MCF7 cells incubated for 24 hrs by In-Cell Western blot analysis; format: cell-based
T1 sequence (P03372 whole entry): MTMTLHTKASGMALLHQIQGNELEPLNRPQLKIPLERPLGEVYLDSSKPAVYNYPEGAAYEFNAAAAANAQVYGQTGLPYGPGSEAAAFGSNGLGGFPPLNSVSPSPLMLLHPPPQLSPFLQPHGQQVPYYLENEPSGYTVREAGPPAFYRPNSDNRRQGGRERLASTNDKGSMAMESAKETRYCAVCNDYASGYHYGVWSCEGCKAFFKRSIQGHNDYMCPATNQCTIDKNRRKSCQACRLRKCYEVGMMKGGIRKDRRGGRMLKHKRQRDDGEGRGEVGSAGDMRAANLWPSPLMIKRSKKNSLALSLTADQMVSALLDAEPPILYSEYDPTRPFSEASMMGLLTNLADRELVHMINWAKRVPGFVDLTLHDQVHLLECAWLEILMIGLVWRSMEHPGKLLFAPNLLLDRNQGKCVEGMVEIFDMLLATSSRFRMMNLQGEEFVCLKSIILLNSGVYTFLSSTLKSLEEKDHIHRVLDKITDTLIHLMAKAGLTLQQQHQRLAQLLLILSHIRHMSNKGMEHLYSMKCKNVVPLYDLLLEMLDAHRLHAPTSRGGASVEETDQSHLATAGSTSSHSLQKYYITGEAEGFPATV

MCF7 [2] = assay: Antiproliferative activity against human MCF7 cells assessed as reduction in cell viability incubated for 6 days by CellTiter-Glo reagent based luminescence analysis
[3] = Antagonist activity at ER-alpha D538G mutant (unknown origin) expressed in human MCF7 cells assessed as inhibition of ER-alpha transcription by immunofluorescence assay
[4] = Antagonist activity at ER-alpha Y537S mutant (unknown origin) expressed in human MCF7 cells assessed as inhibition of ER-alpha transcription by immunofluorescence assay
[5] = biological target: Voltage-gated inwardly rectifying potassium channel KCNH2 (Homo sapiens, UniProt Q12809); assay: Inhibition of hERG expressed in CHO cells assessed as inhibition of channel current by automated Qpatch clamp analysis
Voltage-gated inwardly rectifying potassium channel KCNH2, sequence (Q12809 whole entry): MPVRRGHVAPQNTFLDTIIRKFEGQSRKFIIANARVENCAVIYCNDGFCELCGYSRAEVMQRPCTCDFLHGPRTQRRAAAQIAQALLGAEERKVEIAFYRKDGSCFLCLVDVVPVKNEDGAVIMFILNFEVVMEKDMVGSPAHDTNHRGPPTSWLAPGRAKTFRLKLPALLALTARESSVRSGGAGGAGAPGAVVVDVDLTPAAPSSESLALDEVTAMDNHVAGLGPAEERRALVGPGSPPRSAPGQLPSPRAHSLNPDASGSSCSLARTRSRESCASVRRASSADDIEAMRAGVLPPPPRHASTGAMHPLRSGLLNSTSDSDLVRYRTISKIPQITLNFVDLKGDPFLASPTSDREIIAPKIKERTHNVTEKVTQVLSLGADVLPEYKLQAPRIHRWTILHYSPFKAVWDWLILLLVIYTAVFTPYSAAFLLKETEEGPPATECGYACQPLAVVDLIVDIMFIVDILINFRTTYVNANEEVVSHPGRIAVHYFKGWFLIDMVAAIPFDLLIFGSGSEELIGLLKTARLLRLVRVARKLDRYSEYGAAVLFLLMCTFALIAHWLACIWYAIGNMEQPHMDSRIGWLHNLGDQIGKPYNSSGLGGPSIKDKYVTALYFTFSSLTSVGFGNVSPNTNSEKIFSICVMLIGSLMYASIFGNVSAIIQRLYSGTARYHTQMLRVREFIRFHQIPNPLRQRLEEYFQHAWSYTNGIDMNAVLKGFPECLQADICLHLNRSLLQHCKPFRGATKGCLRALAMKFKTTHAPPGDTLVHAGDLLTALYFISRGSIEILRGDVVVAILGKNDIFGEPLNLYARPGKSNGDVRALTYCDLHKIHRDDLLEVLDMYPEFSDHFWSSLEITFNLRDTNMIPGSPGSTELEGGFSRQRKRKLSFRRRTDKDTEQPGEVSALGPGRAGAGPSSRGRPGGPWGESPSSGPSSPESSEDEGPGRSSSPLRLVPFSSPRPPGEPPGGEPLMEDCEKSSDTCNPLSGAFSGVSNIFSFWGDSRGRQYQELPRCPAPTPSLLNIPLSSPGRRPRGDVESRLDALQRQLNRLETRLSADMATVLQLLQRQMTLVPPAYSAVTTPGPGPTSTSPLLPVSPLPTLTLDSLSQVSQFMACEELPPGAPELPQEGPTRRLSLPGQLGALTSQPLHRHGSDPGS

[6] = Antiproliferative activity against endocrine-resistant human MCF7 Tam1 cells assessed as inhibition of cell growth; settings: Tamoxifen-resistant MCF7
Estrogen receptor [7] = biological target: T1, Estrogen receptor; format: cell-based, HEK293
MCF7 [8] = assay: Antiproliferative activity against human MCF7 cells harboring ER-alpha Y537S mutant assessed as inhibition of cell growth
MDA-MB-361 = assay: Antiproliferative activity against human MDA-MB-361 cells assessed as reduction in cell viability
CAMA-1 = assay: Antiproliferative activity against human CAMA-1 cells assessed as reduction in cell viability
BT-474 = assay: Antiproliferative activity against human BT-474 cells assessed as reduction in cell viability
T47D = assay: Antiproliferative activity against human T47D cells assessed as reduction in cell viability
[9] = Toxicity in Sprague-Dawley rat assessed as thickened endometrium in uterus at 60 mg/kg, po qd for 3 days by Hematoxylin-Eosin staining based analysis; format: organism-based; settings: in vivo, 72 h, time 3 day
[10] = Estrogenic like activity in Sprague-Dawley rat assessed as increase in ratio of uterine wet weight to body weight at 60 mg/kg, po qd for 3 days relative to control; format: toxicity, organism-based; settings: in vivo, 72 h, time 3 day

COc1cc(F)ccc1[C@H]1CSc2c(ccc3[nH]ncc23)[C@H]1c1ccc(OCCN2CC(CF)C2)cc1 (racemic)
DC50 (Estrogen receptor [1]): 6.3 nM
pIC50 (MCF7 [2]; Homo sapiens, MCF7, 144 h): 8.13

C[C@]12CC[C@@H]3c4ccc(O)cc4C[C@@H](CCCCCCCCC[S+]([O-])CCCC(F)(F)C(F)(F)F)[C@H]3[C@@H]1CC[C@@H]2O (some centres not stated) [FULVESTRANT]
pIC50 [3]: 7.82
pIC50 [4]: 7.88

Oc1ccc2c(c1)OCC(c1ccc(F)cc1F)=C2c1ccc(OCCN2CC(CF)C2)cc1
pIC50 (MCF7 [2]; Homo sapiens, MCF7, 144 h): 7.24

Oc1ccc2c(c1)OC[C@H](c1ccc(F)cc1F)[C@@H]2c1cc(F)c(OCCN2CC(CF)C2)c(F)c1 (racemic)
pIC50 (MCF7 [2]; Homo sapiens, MCF7, 144 h): 8.85
pIC50 [5]: 5.72

COc1cc(F)ccc1[C@H]1CSc2cc(C(=O)O)ccc2[C@H]1c1ccc(OCCN2CC(CF)C2)cc1 (racemic)
DC50 (Estrogen receptor [1]): 9.6 nM
pIC50 (MCF7 [2]; Homo sapiens, MCF7, 144 h): 8.77

Oc1ccc2c(c1)SC[C@H](c1ccc(F)cc1F)[C@@H]2c1ccc(OCCN2CC(CF)C2)cc1 (racemic)
pIC50 (MCF7 [2]; Homo sapiens, MCF7, 144 h): 9.22
pIC50 [5]: 4.89

C[C@@H]1Cc2c([nH]c3ccccc23)[C@@H](c2c(F)cc(NC3CN(CCCF)C3)cc2F)N1CC(F)(F)CO [GIREDESTRANT]
pIC50 [6]: 8.91
DC50 (Estrogen receptor [1]): 0.3 nM
pIC50 (MCF7 [2]; Homo sapiens, MCF7, 144 h): 9.70
pIC50 (Estrogen receptor [7]): 9.37
pIC50 (MCF7 [8]): 8.17

Oc1ccc2c(c1)OC[C@H](c1ccc(F)cc1F)[C@@H]2c1ccc(OCCN2CC(CF)C2)cc1F (racemic)
pIC50 [5]: 5.27

CC(=O)N1CCC([C@H]2COc3cc(O)ccc3[C@H]2c2ccc(OCCN3CC(CF)C3)cc2)CC1 (racemic)
DC50 (Estrogen receptor [1]): 24 nM
pIC50 (MCF7 [2]; Homo sapiens, MCF7, 144 h): 8.02

Oc1ccc2c(c1)SC[C@H](c1cc(F)c(F)cc1F)[C@@H]2c1ccc(OCCN2CC(CF)C2)cc1
pIC50 (MDA-MB-361): ~7.82
pIC50 (CAMA-1): 8.40
pIC50 (BT-474): 8.40
pIC50 (MCF7 [2]; mcf7): 9.60
pIC50 (T47D): 8.40

Oc1ccc2c(c1)OC[C@H](c1ccc(F)cc1F)[C@@H]2c1ccc(NCCN2CC(CF)C2)cc1 (racemic)
DC50 (Estrogen receptor [1]): 1.7 nM
pIC50 (MCF7 [2]; Homo sapiens, MCF7, 144 h): 8.03

COc1ccc([C@H]2CSc3cc(O)ccc3[C@H]2c2ccc(OCCN3CC(CF)C3)cc2)c(F)c1 (racemic)
pIC50 (MCF7 [2]; Homo sapiens, MCF7, 144 h): 9.40

Oc1ccc2c(c1)OC[C@H](c1ccc(F)cc1F)[C@@H]2c1ccc(OCCN2CC(CF)C2)nc1 (racemic)
pIC50 (MCF7 [2]; Homo sapiens, MCF7, 144 h): 8.77

COc1cc([C@@H]2c3ccc(O)cc3OC[C@@H]2c2ccc(F)cc2F)ccc1OCCN1CC(CF)C1 (racemic)
DC50 (Estrogen receptor [1]): 4.5 nM
pIC50 (MCF7 [2]; Homo sapiens, MCF7, 144 h): 8.32

Oc1ccc2c(c1)OC[C@H](c1ccc(F)cc1F)[C@@H]2c1ccc(OC2CN(CCCF)C2)cc1 (racemic)
DC50 (Estrogen receptor [1]): 2.8 nM
pIC50 (MCF7 [2]; Homo sapiens, MCF7, 144 h): 8.11

COc1cc(F)ccc1[C@H]1CS(=O)(=O)c2cc(O)ccc2[C@H]1c1ccc(OCCN2CC(CF)C2)cc1 (racemic)
pIC50 (MCF7 [2]; Homo sapiens, MCF7, 144 h): 8.80
pIC50 [5]: < 4.40

FCC1CN(CCOc2ccc([C@@H]3c4ccc5[nH]ncc5c4SC[C@@H]3c3cc(F)c(F)cc3F)cc2)C1 (racemic)
DC50 (Estrogen receptor [1]): 6.6 nM
pIC50 (MCF7 [2]; Homo sapiens, MCF7, 144 h): 8.24

COc1ccc([C@H]2COc3cc(O)ccc3[C@H]2c2ccc(OCCN3CC(CF)C3)cc2)c(F)c1 (racemic)
pIC50 (MCF7 [2]; Homo sapiens, MCF7, 144 h): 9.06
pIC50 [5]: 5.46

COc1cc(F)ccc1[C@H]1CSc2cc(O)ccc2[C@H]1c1ccc(OCCN2CC(CF)C2)cc1 (racemic)
pIC50 (MCF7 [2]; mcf7): 9.22
pIC50 [5]: < 4.40

CS(=O)(=O)N1CCC([C@H]2COc3cc(O)ccc3[C@H]2c2ccc(OCCN3CC(CF)C3)cc2)CC1 (racemic)
DC50 (Estrogen receptor [1]): 8.8 nM
pIC50 (MCF7 [2]; Homo sapiens, MCF7, 144 h): 8.21

Oc1ccc2c(c1)OC[C@H](c1ccc(F)cc1F)[C@@H]2c1ccc(OCCN2CC(CF)C2)cc1 (racemic)
pIC50 (MCF7 [2]; Homo sapiens, MCF7, 144 h): 8.92

CC/C(=C(\c1ccc(O)cc1)c1ccc(OCCN(C)C)cc1)c1ccccc1 [AFIMOXIFENE]
Activity [9]: Toxic
fold change (FC) [10]: 2

COc1cc(F)ccc1[C@H]1CSc2cc(O)ccc2[C@H]1c1ccc(OCCN2CC(CF)C2)c(F)c1 (racemic)
pIC50 (MCF7 [2]; Homo sapiens, MCF7, 144 h): 9.15
pIC50 [5]: < 4.40
